Drawing on US9714231B2, “Pyrrolidine GPR40 modulators” (BRISTOL-MYERS SQUIBB COMPANY, priority 2012, dated 2017), this text covers EC50 for twelve compounds.

The target in this assay is human GPR40 (Homo sapiens, UniProt O14842). Description: FDSS-based intracellular calcium assay (Human GRP40 in vitro assay). It counts as cell-based. Also noted: 3xFLAG; expressed in transfected cells. Particulars: cells expressing GPR40, intracellular Ca2+ response, FDSS reader; read-out: hGPR40 EC50. The procedure, abridged:
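GPR40-expressing cells, plated overnight in serum-free phenol red-free DMEM, loaded with Fluo-3 in HBSS with 1.7 mM probenecid for 30 min at 37° C. Compounds in DMSO, diluted in assay buffer, added as 3× solutions; intracellular Ca^2+ response read on FDSS.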
(Calcium flux is commonly read through the fluorescence of an indicator in the cells.)

Where a name gives a salt, the structure may show the parent alone.

For orientation: EC50 means the concentration that produces a half-maximal response.

human GPR40, sequence (O14842 whole entry): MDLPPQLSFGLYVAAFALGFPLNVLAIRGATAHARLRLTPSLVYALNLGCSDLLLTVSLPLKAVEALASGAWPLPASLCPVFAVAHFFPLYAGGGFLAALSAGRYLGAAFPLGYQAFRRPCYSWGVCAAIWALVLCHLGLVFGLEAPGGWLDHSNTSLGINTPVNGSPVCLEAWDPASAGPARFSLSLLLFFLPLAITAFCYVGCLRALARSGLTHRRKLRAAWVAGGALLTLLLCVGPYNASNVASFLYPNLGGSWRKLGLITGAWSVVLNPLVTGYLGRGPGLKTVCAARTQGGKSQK

For `CCOc1ccc(F)c(N2CCC(Oc3ccc(N4C[C@H](Oc5ccccc5C)C[C@@H]4CC(=O)O)cc3)CC2)c1` [Example 67, 2-((2R,4R)-1-(4-(1-(5-Ethoxy-2-fluorophenyl)piperidin-4-yloxy)phenyl)-4-(o-tolyloxy)pyrrolidin-2-yl)acetic acid], the EC50 is 950 nM.

For the compound `COc1cc(N2CCC(Oc3ccc(N4C[C@H](OC)C[C@@H]4CC(=O)O)cc3)C(C)C2)c(Cl)cn1` (single isomer, unassigned) [Example 84, Isomer 2, TFA], the 50% effective concentration (EC50) stood at 180 nM. For `COc1cc(N2CCC(Oc3ccc(N4C[C@H](OC)C[C@@H]4CC(=O)O)cc3Cl)C(C)C2)c(Cl)cn1` (stereo partly drawn) [Example 137, 2-((2R,4R)-1-(3-Chloro-4-(((3,4-trans)-1-(5-chloro-2-methoxypyridin-4-yl)-3-methylpiperidin-4-yl)oxy)phenyl)-4-methoxypyrrolidin-2-yl)acetic acid, sodium salt], the EC50 was 230 nM. With `O=C(O)C[C@H]1C[C@@H](C(F)(F)F)CN1c1ccc(OC2CCN(c3cccc(OC(F)(F)F)c3)CC2)cc1` [Example 24, 2-((2R,4R)-1-(4-((1-(3-(Trifluoromethoxy)phenyl)piperidin-4-yl)oxy)phenyl)-4-(trifluoromethyl)pyrrolidin-2-yl)acetic acid, HCl], the EC50 is 4100 nM. For the compound `COc1cc(N2CCC(Oc3ccc(N4C[C@H](C(F)(F)F)C[C@@H]4CC(=O)O)cc3)C(C)C2)c(Cl)cn1` (single isomer, unassigned) [Example 27, Isomer 2, HCl], the EC50 was 130 nM.

Take `CCOc1ccc(F)c(N2CCC(Oc3ccc(N4C[C@H](Oc5ccc(C#N)cc5)CC4CC(=O)O)cc3)CC2)c1` (stereo partly drawn) [Example 128, 2-((4R)-4-(4-Cyanophenoxy)-1-(4-((1-(5-ethoxy-2-fluorophenyl)piperidin-4-yl)oxy)phenyl)pyrrolidin-2-yl)acetic acid, HCl]: the concentration giving a half-maximal response (EC50) came out at 1300 nM. Turning to `COc1cc(N2CC[C@@H](Oc3ccc(N4C[C@H](OC)[C@@H](C)[C@@H]4CC(=O)O)cn3)[C@H](C)C2)c(C2=CCCC2(C)C)cn1` [Example 153, 2-((2S,3S,4R)-1-(6-(((3R,4R)-1-(5-(5,5-Dimethylcyclopent-1-en-1-yl)-2-methoxypyridin-4-yl)-3-methylpiperidin-4-yl)oxy)pyridin-3-yl)-4-methoxy-3-methylpyrrolidin-2-yl)acetic acid, HCl], the EC50 was determined as 200 nM. The result for `CCCCOc1cc(N2C[C@H](OC)[C@@H](C)[C@@H]2CC(=O)O)cnc1OC1CCN(c2cc(OC)ncc2Cl)CC1C` (stereo partly drawn) [Example 160, 2-((2S,3S,4R)-1-(5-Butoxy-6-(((3,4-trans)-1-(5-chloro-2-methoxypyridin-4-yl)-3-methylpiperidin-4-yl)oxy)pyridin-3-yl)-4-methoxy-3-methylpyrrolidin-2-yl)acetic acid] reads 86 nM; that for `COc1ccc(F)c(N2CCC(Oc3ccc(N4C[C@H](c5ccccc5)C[C@@H]4CC(=O)O)cc3)CC2)c1` [Example 3, 2-((2R,4S)-1-(4-((1-(2-Fluoro-5-methoxyphenyl)piperidin-4-yl)oxy)phenyl)-4-phenylpyrrolidin-2-yl)acetic acid, HCl], 210 nM; that for `COc1cc(N2CCC(Oc3ccc(N4C[C@H](OC)C[C@@H]4CC(=O)O)cc3)C(C)C2)c(F)cn1` (single isomer, unassigned) [Example 83, Isomer 1], 4800 nM.

As to `COc1cc(N2CCC(Oc3ccc(N4C[C@H](OC)[C@@H](C)[C@@H]4CC(=O)O)cc3)C(C)C2)c(F)cc1F` (single isomer, unassigned) [Example 169, Isomer 2], the EC50 came to 450 nM. Consider `CCOc1ccc(F)c(N2CCC(Oc3ccc(N4C[C@H](Oc5cccc(C)c5)C[C@@H]4CC(=O)O)cc3)CC2)c1` [Example 72, 2-((2R,4R)-1-(4-(1-(5-Ethoxy-2-fluorophenyl)piperidin-4-yloxy)phenyl)-4-(m-tolyloxy)pyrrolidin-2-yl)acetic acid], for which the EC50 was 170 nM.
